Data published in ChEMBL document CHEMBL5126512, “Current status of carbazole hybrids as anticancer agents” (Eur J Med Chem, 2022).
pIC50: −log10 of the molar value. One block for each compound: values may come before it.

Assays:
[1] = test system: MDA-MB-231; experiment: Antiproliferative activity against human MDA-MB-231 cells assessed as cell growth inhibition measured after 72 hrs by MTT assay; assay type: functional, cell-based; conditions: MDA-MB-231, 72 h
[2] = test system: HCT-116; experiment: Antiproliferative activity against human HCT-116 cells assessed as cell growth inhibition measured after 72 hrs by MTT assay; assay type: functional, cell-based; conditions: HCT-116, 72 h
[3] = test system: A549; experiment: Antiproliferative activity against human A549 cells assessed as cell growth inhibition measured after 72 hrs by MTT assay; assay type: functional, cell-based; conditions: A549, 72 h
[4] = Antiproliferative activity against mouse […] cells assessed as cell growth inhibition by MTT assay; assay type: functional, cell-based
[5] = test system: HepG2; experiment: Antiproliferative activity against human HepG2 cells assessed as cell growth inhibition by MTT assay; assay type: functional, cell-based
[6] = Antiproliferative activity against human Lu1 cells assessed as cell growth inhibition by MTT assay; assay type: functional, cell-based
[7] = test system: SW480; experiment: Antiproliferative activity against human SW480 cells assessed as cell growth inhibition by MTT assay; assay type: functional, cell-based
[8] = test system: 786-0; experiment: Antiproliferative activity against human 786-0 cells assessed as cell growth inhibition measured after 48 hrs by SRB assay; assay type: functional, cell-based; conditions: 786-0, 48 h
[9] = test system: OVCAR-3; experiment: Antiproliferative activity against human OVCAR-3 cells assessed as cell growth inhibition measured after 48 hrs by SRB assay; assay type: functional, cell-based; conditions: OVCAR-3, 48 h
[10] = test system: SW-620; experiment: Antiproliferative activity against human SW-620 cells assessed as cell growth inhibition measured after 48 hrs by SRB assay; assay type: functional, cell-based; conditions: SW-620, 48 h
[11] = test system: Hs-578T; experiment: Antiproliferative activity against human Hs-578T cells assessed as cell growth inhibition measured after 48 hrs by SRB assay; assay type: functional, cell-based
[12] = test system: UO-31; experiment: Antiproliferative activity against human UO-31 cells assessed as cell growth inhibition measured after 48 hrs by SRB assay; assay type: functional, cell-based; conditions: UO-31, 48 h
[13] = test system: SNB-75; experiment: Antiproliferative activity against human SNB-75 cells assessed as cell growth inhibition measured after 48 hrs by SRB assay; assay type: functional, cell-based; conditions: SNB-75, 48 h
[14] = test system: HOP-62; experiment: Antiproliferative activity against human HOP-62 cells assessed as cell growth inhibition measured after 48 hrs by SRB assay; assay type: functional, cell-based; conditions: HOP-62, 48 h
[15] = test system: OVCAR-4; experiment: Antiproliferative activity against human OVCAR-4 cells assessed as cell growth inhibition measured after 48 hrs by SRB assay; assay type: functional, cell-based; conditions: OVCAR-4, 48 h
[16] = test system: MDA-MB-231; experiment: Antiproliferative activity against human MDA-MB-231 cells assessed as cell growth inhibition measured after 48 hrs by SRB assay; assay type: functional, cell-based; conditions: for pIC50: MDA-MB-231, 48 h; for GI50: MDA-MB-231, time 48 hrs
[17] = test system: MCF7; experiment: Antiproliferative activity against human MCF7 cells assessed as cell growth inhibition measured after 48 hrs by SRB assay; assay type: functional, cell-based; conditions: for pIC50: MCF7, 48 h; for GI50: MCF7, time 48 hrs
[18] = test system: MCF7; experiment: Cytotoxicity against human MCF7 cells assessed as cell growth inhibition measured after 48 hrs by MTT assay; assay type: functional, cell-based; conditions: MCF7, 48 h
[19] = Cytotoxicity against human RPE-1 cells assessed as cell growth inhibition measured after 48 hrs by MTT assay; assay type: toxicity, cell-based; conditions: RPE-1 (TERT-RPE1) cells
[20] = test system: HCT-116; experiment: Cytotoxicity against human HCT-116 cells assessed as cell growth inhibition measured after 48 hrs by MTT assay; assay type: functional, cell-based; conditions: HCT-116, 48 h
[21] = test system: HepG2; experiment: Cytotoxicity against human HepG2 cells assessed as cell growth inhibition measured after 48 hrs by MTT assay; assay type: functional, cell-based; conditions: HepG2, 48 h
[22] = test system: SW1990; experiment: Anticancer activity against human SW1990 cells assessed as cell growth inhibition measured after 72 hrs by Cell-Titre Glo luminescent cell viability assay; assay type: functional, cell-based; conditions: SW1990, 72 h
[23] = test system: ASPC1; experiment: Anticancer activity against human ASPC1 cells assessed as cell growth inhibition measured after 72 hrs by Cell-Titre Glo luminescent cell viability assay; assay type: functional, cell-based; conditions: ASPC1, 72 h
[24] = test system: MCF7; experiment: Antiproliferative activity against human MCF7 cells assessed as cell growth inhibition by MTT assay; assay type: functional, cell-based
[25] = test system: A549; experiment: Antiproliferative activity against human A549 cells assessed as cell growth inhibition by MTT assay; assay type: functional, cell-based
[26] = test system: COLO 205; experiment: Antiproliferative activity against human COLO 205 cells assessed as cell growth inhibition by MTT assay; assay type: functional, cell-based
[27] = test system: MDA-MB-231; experiment: Antiproliferative activity against human MDA-MB-231 cells assessed as cell growth inhibition by MTT assay; assay type: functional, cell-based
[28] = test system: HeLa; experiment: Antiproliferative activity against human HeLa cells assessed as cell growth inhibition by MTT assay; assay type: functional, cell-based
[29] = test system: MCF7; experiment: Anticancer activity against human MCF7 cells assessed as cell growth inhibition measured after 24 hrs by MTT assay; assay type: functional, cell-based; conditions: MCF7, 24 h
[30] = Cytotoxicity against human HFB4 cells assessed as cell growth inhibition measured after 24 hrs by MTT assay; assay type: toxicity, cell-based
[31] = target: Urokinase-type plasminogen activator (Homo sapiens, UniProt P00749); experiment: Inhibition of urokinase plasminogen activator in human MCF7 cells measured after 24 hrs by ELISA method; assay type: cell-based
[32] = test system: A549; experiment: Cytotoxicity against human A549 cells assessed as cell growth inhibition measured after 24 hrs by MTT assay; assay type: functional, cell-based; conditions: A549, 24 h, pooled result: one value given for 4 cell lines, strains, targets or settings
[33] = test system: HeLa; experiment: Cytotoxicity against human HeLa cells assessed as cell growth inhibition measured after 72 hrs by MTT assay; assay type: functional, cell-based; conditions: pooled result: one value given for 3 cell lines, strains, targets or settings
[34] = test system: MCF7; experiment: Cytotoxicity against human MCF7 cells assessed as cell growth inhibition measured after 72 hrs by MTT assay; assay type: functional, cell-based; conditions: MCF7, 72 h
[35] = test system: MDA-MB-231; experiment: Cytotoxicity against human MDA-MB-231 cells assessed as cell growth inhibition measured after 72 hrs by MTT assay; assay type: functional, cell-based; conditions: MDA-MB-231, 72 h
[36] = test system: HepG2; experiment: Cytotoxicity against human HepG2 cells assessed as cell growth inhibition measured after 72 hrs by MTT assay; assay type: functional, cell-based; conditions: HepG2, 72 h

pIC50 [1]: 5.15
pIC50 [2]: 5.15
pIC50 [3]: 5.15
Compound: OC(CN1CCCCC1)Cn1c2ccc(Cl)cc2c2cc(Cl)ccc21 (stereo not drawn)

pIC50 [5]: 5.40
pIC50 [7]: 5.40
Compound: COc1cc2c(cc1C)c1ccccc1n2CC(O)CN1CCN(C)CC1 (stereo not drawn)
pIC50 [4]: 5.40
pIC50 [6]: 5.40

pIC50 [5]: 5.40
pIC50 [7]: 5.40
Compound: CCN1CCN(CC(O)Cn2c3ccccc3c3cc(C)c(OC)cc32)CC1 (stereo not drawn)
pIC50 [4]: 5.40
pIC50 [6]: 5.40

pIC50 [1]: 5.15
pIC50 [2]: 5.15
pIC50 [3]: 5.15
Compound: CC1CCN(CC(O)Cn2c3ccc(Cl)cc3c3cc(Cl)ccc32)CC1 (stereo not drawn)

pIC50 [1]: 5.15
pIC50 [2]: 5.15
pIC50 [3]: 5.15
Compound: CC1CCCCN1CC(O)Cn1c2ccc(Cl)cc2c2cc(Cl)ccc21 (stereo not drawn)

GI50 [16]: 4700 nM
GI50 [17]: 8000 nM
Compound: O=C(CCCn1c2ccc(Br)cc2c2cc(Br)ccc21)NCCN1CCNCC1

Further lines, the compound ahead of its results:

Compound: Cc1c2ccncc2c(C(=O)NCc2ccccc2)c2c1[nH]c1ccccc12
pIC50 [8]: 5.77
pIC50 [9]: 5.77
pIC50 [10]: 5.77
pIC50 [11]: 5.77
pIC50 [12]: 5.77
pIC50 [13]: 5.77
pIC50 [14]: 5.77
pIC50 [15]: 5.77
pIC50 [16]: 5.77
pIC50 [17]: 5.77

Compound: CCn1c2ccccc2c2cc(NC(=O)c3c(N)n[nH]c3Nc3ccccc3)ccc21
pIC50 [18]: 5.53
IC50 at 48 h [19]: > 100000 nM
pIC50 [20]: 5.53
pIC50 [21]: 5.53

Compound: CCCCn1c2ccc(Br)cc2c2cc(/C=N/NC(=O)c3ccncc3)ccc21
pIC50 [22]: 5.47
pIC50 [23]: 5.47

Compound: CCn1c2ccccc2c2cc(NC(=O)c3cc4cccc(OC)c4oc3=O)ccc21
pIC50 [18]: 6.05
IC50 at 48 h [19]: > 100000 nM
pIC50 [20]: 6.05
pIC50 [21]: 6.05

Compound: Cc1c2ccncc2c(/C=C/C(C)NC=O)c2c1[nH]c1ccccc12 (stereo not drawn)
pIC50 [8]: 5.90
pIC50 [9]: 5.90
pIC50 [10]: 5.90
pIC50 [11]: 5.90
pIC50 [12]: 5.90
pIC50 [13]: 5.90
pIC50 [14]: 5.90
pIC50 [15]: 5.90
pIC50 [16]: 5.90
pIC50 [17]: 5.90

Compound: CCn1c2ccccc2c2cc(NC(=O)c3cc4cc(Br)cc(Br)c4oc3=O)ccc21
pIC50 [18]: 6.05
pIC50 [20]: 6.05
pIC50 [21]: 6.05

Compound: O=C(Cn1c2ccccc2c2ccccc21)NNC(c1ccc(O)cc1)N1CCNCC1 (stereo not drawn)
GI50 [16]: < 10000 nM
GI50 [17]: < 10000 nM

Compound: COc1ccc2[nH]c3c(C)cc(-c4cc(-c5ccc(C(F)(F)F)cc5F)nc(N)n4)c(C)c3c2c1
pIC50 [24]: 7.00
pIC50 [25]: 7.00
pIC50 [26]: 7.00

Compound: Oc1c(C(c2ccc(C(F)(F)F)cc2)N2CCCC2)ccc2[nH]c3ccccc3c12 (stereo not drawn)
pIC50 [27]: 5.27
pIC50 [28]: 5.27

Compound: O=[N+]([O-])c1coc(C2c3[nH]c4ccccc4c3C(c3cc([N+](=O)[O-])co3)c3[nH]c4ccccc4c32)c1 (stereo not drawn)
pIC50 [29]: 5.28
IC50 at 24 h [30]: 75200 nM
pIC50 [31]: 5.42

Compound: COc1cc(-c2cc(-c3ccc4c(c3)c3ccccc3n4-c3nc(-c4ccc(Cl)cc4)ns3)on2)cc(OC)c1OCc1cc(-c2ccncc2)no1
pIC50 [32]: 8.00

Compound: COc1cc(-c2cc(COc3c(OC)cc(-c4cc(-c5ccc6c(c5)c5ccccc5n6-c5nc(-c6ccc(Cl)cc6)ns5)on4)cc3OC)on2)cc(OC)c1OC
pIC50 [32]: 7.68

Compound: COc1cc(NC(=O)Nc2cc(C)c3[nH]c4ccc(Br)cc4c3c2C)cc(OC)c1OC
pIC50 [33]: 5.71
pIC50 [34]: 5.71
pIC50 [35]: 5.71
pIC50 [36]: 5.71
